From patent EP0252525B1, “Alpha-amylase assay using modified oligosaccharide and process for producing said modified oligosaccharide” (WAKO PURE CHEMICAL INDUSTRIES, LTD, priority 1986, dated 1988) come the findings set out here.

Holding throughout (format): biochemical
For experiment [1], the target named is T1, HPA (Homo sapiens, UniProt P04746).
T1 sequence (P04746 16-511): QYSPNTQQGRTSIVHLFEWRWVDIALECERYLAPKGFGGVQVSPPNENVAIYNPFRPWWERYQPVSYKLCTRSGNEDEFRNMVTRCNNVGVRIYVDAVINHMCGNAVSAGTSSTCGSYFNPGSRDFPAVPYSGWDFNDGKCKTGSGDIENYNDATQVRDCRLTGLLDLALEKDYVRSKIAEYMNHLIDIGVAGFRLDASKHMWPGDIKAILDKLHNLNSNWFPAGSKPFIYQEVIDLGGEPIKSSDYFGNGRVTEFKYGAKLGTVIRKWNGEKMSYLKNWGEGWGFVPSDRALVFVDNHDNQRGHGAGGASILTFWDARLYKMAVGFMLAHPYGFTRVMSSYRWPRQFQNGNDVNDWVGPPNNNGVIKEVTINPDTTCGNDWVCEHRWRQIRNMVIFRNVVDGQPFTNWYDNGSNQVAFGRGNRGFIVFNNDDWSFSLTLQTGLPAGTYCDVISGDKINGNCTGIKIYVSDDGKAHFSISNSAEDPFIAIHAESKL
The experiment in a line: Binding mode (distribution of hydrolysis products) by HPLC. Conditions: for Hydrolysis product G2P: share of product G2P; for Hydrolysis product G3P: share of product G3P; for Hydrolysis product G4P: share of product G4P; for Hydrolysis product GP: share of product GP. As to the method:
(§1) The binding mode of each substrate were measured with high-performance liquid chromatography (HPLC) as described above.

The target of experiment [2] is T2, HSA (Homo sapiens, UniProt P0DUB6).
T2 sequence (P0DUB6 16-511): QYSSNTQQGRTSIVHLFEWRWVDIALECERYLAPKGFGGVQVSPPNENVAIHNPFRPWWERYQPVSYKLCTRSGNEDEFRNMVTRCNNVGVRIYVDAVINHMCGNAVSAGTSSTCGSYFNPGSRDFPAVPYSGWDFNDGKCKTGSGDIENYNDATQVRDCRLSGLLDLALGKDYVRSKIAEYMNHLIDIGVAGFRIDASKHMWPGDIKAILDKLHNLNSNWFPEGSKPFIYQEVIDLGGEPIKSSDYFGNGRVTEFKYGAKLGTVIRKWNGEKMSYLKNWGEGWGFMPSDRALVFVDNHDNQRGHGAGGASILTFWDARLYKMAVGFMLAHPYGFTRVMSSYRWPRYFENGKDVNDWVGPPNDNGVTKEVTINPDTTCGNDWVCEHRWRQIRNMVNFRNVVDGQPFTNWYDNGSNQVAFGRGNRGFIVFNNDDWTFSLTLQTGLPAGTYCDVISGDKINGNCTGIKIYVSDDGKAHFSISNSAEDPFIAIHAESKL
The description is as above. Conditions: for Hydrolysis product G2P: share of product G2P; for Hydrolysis product G3P: share of product G3P; for Hydrolysis product G4P: share of product G4P; for Hydrolysis product GP: share of product GP. As to the method:
as §1

Experiment [3] deals with T3, human salivary α-amylase (HSA) (Homo sapiens, UniProt P0DUB6).
T3 sequence (P0DUB6 16-511): T2 sequence (P0DUB6 16-511)
The experiment in a line: Hydrolysis rate of substrates by α-amylase (relative to G5P). Conditions: substrate 1.0 mM, pH 7, value of G5P taken as 1. As to the method: (§2) The above-mentioned advantages can be shown by using the following oligosaccharides: [drawing 6] n = 2: BG4P n = 3: BG5P (the present invention) n = 4: BG6P n = 5: BG7P [drawing 7] n = 2: G4P n = 3: G5P (standard) n = 4: G6P n = 5: G7P [drawing 8] n = 2: BDG4P n = 3: BDG5P n = 4: BDG6P n = 5: BDG7P The hydrolysis rate is measured by using human pancreatic α-amylase (HPA) or human salivary α-amylase (HSA) for each substrate (1.0 mM) at pH 7, and evaluating by means of relative values by taking the value of G5P as 1.

In experiment [4] the target is T4, human pancreatic α-amylase (HPA) (Homo sapiens, UniProt P04746).
T4 sequence (P04746 16-511): T1 sequence (P04746 16-511)
Described as above. Conditions: substrate 1.0 mM, pH 7, value of G5P taken as 1. As to the method:
as §2

The target in experiment [5] is T1, HPA. The experiment in a line: Km determination (Lineweaver-Burk plot, products measured by HPLC). Conditions: 50 mM BES/NaOH buffer pH 7.6, 37°C, 5 min. As to the method:
The amounts of the products were measured with HPLC.

The test system of experiment [6] is glucoamylase. Briefly: Action of glucoamylase on the modified oligosaccharide.

SMILES strings stand for the structures. Several values for one entry are separate records, joined by “and”; a condition that tells them apart may be missing. Identical values can stand only once.

Broadly, the Km is the substrate concentration at which the rate is half of its maximum. For `O=[N+]([O-])c1ccc(O[C@H]2O[C@H](CO)[C@@H](O[C@H]3O[C@H](CO)[C@@H](O[C@H]4O[C@H](CO)[C@@H](O[C@H]5O[C@H](CO)[C@@H](O[C@H]6O[C@H](CO)[C@@H](O[C@H]7O[C@H](CO)[C@@H](O[C@H]8O[C@@H]9COC(c%10ccccc%10)O[C@H]9[C@H](O)[C@H]8O)[C@H](O)[C@H]7O)[C@H](O)[C@H]6O)[C@H](O)[C@H]5O)[C@H](O)[C@H]4O)[C@H](O)[C@H]3O)[C@H](O)[C@H]2O)cc1` (some centres unmarked) [BDG7P], in experiment [1], the “Hydrolysis product G2P” value is reported as 48%, the “Hydrolysis product G3P” value was found to be 22%, the “Hydrolysis product G4P” value came out at 13% and the “Hydrolysis product GP” value worked out at 7%. For the same compound, in experiment [2], the “Hydrolysis product G2P” value was 55%, the “Hydrolysis product G3P” value came out at 25%, the “Hydrolysis product G4P” value was found to be 15% and the “Hydrolysis product GP” value came out at 5%. In addition, the “hydrolysis rate (relative value)” value in experiment [3] is reported as 1.0. Besides, the “hydrolysis rate (relative value)” value in experiment [4] was found to be 1.1. Moreover, the Km in experiment [5] is 86 µM and 88.1 µM.
Turning to `O=[N+]([O-])c1ccc(O[C@H]2O[C@H](CO)[C@@H](O[C@H]3O[C@H](CO)[C@@H](O[C@H]4O[C@H](CO)[C@@H](O[C@H]5O[C@H](CO)[C@@H](O[C@H]6O[C@H](COCc7ccccc7)[C@@H](O)[C@H](O)[C@H]6O)[C@H](O)[C@H]5O)[C@H](O)[C@H]4O)[C@H](O)[C@H]3O)[C@H](O)[C@H]2O)cc1` [BG5P, p-nitrophenyl O-(6-O-benzyl)-α-D-glycopyranosyl-(1→4)-O-α-D-glucopyranosyl-(1→4)-O-α-D-glucopyranosyl-(1→4)-O-α-D-glucopyranosyl-(1→4)-α-D-glucopyranoside], in experiment [1], the “Hydrolysis product G2P” value was 95%, the “Hydrolysis product G3P” value turned out to be 0%, the “Hydrolysis product G4P” value stood at 0% and the “Hydrolysis product GP” value stood at 5%. In addition, in experiment [2], the “Hydrolysis product G2P” value came to 98%, the “Hydrolysis product G3P” value was 0%, the “Hydrolysis product G4P” value is 0% and the “Hydrolysis product GP” value was found to be 2%. The “hydrolysis rate (relative value)” value in experiment [3] is 1.4. The “hydrolysis rate (relative value)” value in experiment [4] is listed as 1.4. Further, in experiment [6], the “action of glucoamylase on the substrate” value is listed as “not acted by glucoamylase”. Also, the Km in experiment [5] was 110 µM and 106 µM.
For the compound `O=[N+]([O-])c1ccc(O[C@H]2O[C@H](CO)[C@@H](O[C@H]3O[C@H](CO)[C@@H](O[C@H]4O[C@H](CO)[C@@H](O[C@H]5O[C@H](CO)[C@@H](O[C@H]6O[C@H](CBr)[C@@H](O)[C@H](O)[C@H]6O)[C@H](O)[C@H]5O)[C@H](O)[C@H]4O)[C@H](O)[C@H]3O)[C@H](O)[C@H]2O)cc1` [BrG5P], the “action of glucoamylase on the substrate” value in experiment [6] is reported as “not acted by glucoamylase”.
Take `O=[N+]([O-])c1ccc(O[C@H]2O[C@H](CO)[C@@H](O[C@H]3O[C@H](CO)[C@@H](O[C@H]4O[C@H](CO)[C@@H](O[C@H]5O[C@H](CO)[C@@H](O[C@H]6O[C@H](CO)[C@@H](O)[C@H](O)[C@H]6O)[C@H](O)[C@H]5O)[C@H](O)[C@H]4O)[C@H](O)[C@H]3O)[C@H](O)[C@H]2O)cc1` [Substrate G5P]: in experiment [1], the “Hydrolysis product G2P” value is 73%, the “Hydrolysis product G3P” value was 12%, the “Hydrolysis product G4P” value came to 0% and the “Hydrolysis product GP” value is on record as 15%. Moreover, in experiment [2], the “Hydrolysis product G2P” value came out at 83%, the “Hydrolysis product G3P” value came to 11%, the “Hydrolysis product G4P” value is given as 0% and the “Hydrolysis product GP” value was 6%. Besides, the “hydrolysis rate (relative value)” value in experiment [3] is recorded as 1.0. In addition, the “hydrolysis rate (relative value)” value in experiment [4] amounted to 1.0. For the same compound, in experiment [5], the Km was 360 µM and 358 µM.
